Here are results for 11 compounds from patent publication US4650812A, “4-oxo-3,4-dihydro-2H-1-benzopyranyloxy alkanoic acid derivatives” (Hoffmann-La Roche Inc., priority 1985, dated 1987).

One assay concerns LTD4. The assay can be described thus: Oral Testing of Leukotriene Antagonists (guinea pig, SRS-A antagonism). The assay is classed as in vivo, guinea pig (Hartley strain, Charles River). Conditions: 10 mg/kg P.O., two hours prior to challenge with leukotriene. The procedure: (c) Oral Testing of Leukotriene Antagonists
Male guinea pigs (Hartley strain, Charles River) weighing 400 to 600 g were anesthetized with urethane (2 g/kg) intraperitoneally and a polyethylene cannula was inserted into the jugular vein for intravenous drug administration. Tracheal pressure (cm water) was recorded from a Statham pressure transducer. After surgical preparation of the animals, a period of time was allowed for spontaneous breathing to stabilize. […] Two minutes later, spontaneous breathing was arrested with succinylcholine chloride (1.2 mg/kg, i.v.) and the animals ventilated with a Harvard (Model #680) small animal respirator set at 40 breaths per minute and 4.0 cc stroke volume. The animals were challenged with a maximum constrictory dose of either leukotriene C4 or leukotriene D4 or leukotriene E4 ([…], i.v.) at 5 minutes. Control vehicle or test drug (adjusted to an alkaline pH where necessary for drug solubilization) was administered (10 mg/kg, p.o) two hours prior to challenge with leukotriene. In order to determine the ID50 for a test drug, the dose is varied from 10 mg/kg, p.o. to 100, 50, 30, 20, 5, 3 and 1 mg/kg. p.o.
In order to determine oral duration of action, the time between exposure to test drug and challenge with leukotriene is varied.
In test procedure (c), the compounds listed in Table III were tested by this oral procedure, and the results obtained are also set out in Table III.

Assay [1] relates to SRS-A induced constriction of the guinea pig ileum. The assay can be described thus: Guinea Pig Ileum, In Vitro (SRS-A antagonism). The format is cell-based. The following applies: Cavia porcellus. On the procedure: (a) Guinea Pig Ileum, In Vitro:
The guinea pig ileum biassay system has been described by Orange Austen, Adv. Immunol. 10: 105-144 (1969). A 1.5 cm segment is removed from animals weighing 300-400 g and suspended in an organ bath containing 10 ml of Tyrodes solution with 10^-6 M atropine sulfate and 10^-6 M pyrilamine maleate. The bath is maintained at 37° C. and aerated with a mixture of 95% oxygen and 5% carbon dioxide. The SRS-A utilized in this screen is obtained by challenging chopped lung fragments from actively sensitized guinea pigs with egg albumin, in vitro. A dose-response curve to SRS-A challenge is established for the ileum. The dose of SRS-A which given 50% of the maximal contraction (EC50) is then used for subsequent challenge. The drug concentration which inhibits, by 50%, the SRS-A induced constriction of the guinea pig ileum is determined.

The next assay relates to leukotriene E4. Nature of the assay: Guinea Pig Bronchoconstriction, In Vivo (Aerosol) (SRS-A antagonism). The arrangement: species or system guinea pig (Hartley strain). Conditions: leukotriene E4 i.v. challenge; for In vivo-aerosol IC50: 5 min exposure, % (w/v) conc. On the procedure: (b) Guinea Pig Bronchoconstriction, In Vivo (Aerosol):
Male guinea pigs (Hartley strain) weighing 300 to 500 g are anesthetized with urethane (2 g/kg) intraperitoneally and a polyetylene cannula is inserted into the jugular vein for drug administration. Tracheal pressure is recorded from a cannula inserted in the trachea and connected to a Statham pressure transducer. After surgical preparation of the animals, a period of time is allowed from pulmonary functions to stabilize. The test compound is administered according to the following protocol. Propanolol (0.1 mg/kg) is administered intravenously while the animals breathed spontaneously. Five minutes thereafter, the animals are exposed for a five minute period to a 1% (w/v) aerosol solution of test compound (adjusted to an alkaline pH where necessary for drug solubilization) or to distilled water of the appropriate pH (for control purposes). A Monaghan (Model 750) ultrasonic nebulizer is used to administer all test compounds by inhalation. The nebulizer ultrasonic frequency is adjusted to produce particles in the 1-8μ diameter range (average 3μ). Aqueous solutions are prepared freshly and introduced into the chamber of the nebulizeer. The output of the nebulizer is made available to the animal by directing a bias flow of aerosol through a Y tube connected to the tracheal cannula. At the end of the exposure period, the animals are paralyzed with succinylcholine (1.2 mg/kg, i.v.) and mechanically respirated (Harvard rodent respirator) at 40 breaths/minute and 2.5 cc tidal volume. […]
The change (cm H2 O) between pre and peak ventilatory pressure readings averaged for three control animals and five drug treated animals. The percent inhibition is calculated from the following formula: [formula] When various drug concentrations are tested, the percent inhibition at each concentration is plotted as log concentration (abscissa) versus percent inhibition (ordinate) and the IC50 is determined from linear regression analysis.

Where [2] appears, read: SRS-A challenge at EC50, Table I, read-out: In vitro G.P. ileum IC50.

Like-named read-outs stand apart in the source and are kept apart here.

Consider `CCCc1c(OCCCCC2(C)CC(=O)c3ccc(OCCCC(=O)OCC)c(CCC)c3O2)ccc(C(C)=O)c1O` (racemic) [rac.-4-[2-[4-(4-acetyl-3-hydroxy-2-propylphenoxy)butyl]-3,4-dihydro-2-methyl-4-oxo-8-propyl-2H-1-benzopyran-7-yl]oxy]butanoic acid ethyl ester], for which the “% Inhib. of LTD4” value with LTD4 is 38 ± 7%.

`CCCc1c(OCCCCC2(C)CC(=O)c3ccc(OCCCC(=O)O)cc3O2)ccc(C(C)=O)c1O` (racemic) [rac.-4-[[2-[4-(4-acetyl-3-hydroxy-2-propylphenoxy)butyl]-3,4-dihydro-2-methyl-4-oxo-2H-1-benzopyran-7-yl]oxy]butanoic acid]: the IC50 (in general, the concentration that inhibits the measured activity by half) in assay [1] (setting [2]) worked out at 3000 nM.

Regarding `CCCc1c(OCCCCC2(C)CC(=O)c3ccc(OCCCC(=O)O)c(CCC)c3O2)ccc(C(C)=O)c1O` (racemic) [rac.-4-[[2-[4-(4-acetyl-3-hydroxy-2-propylphenoxy)butyl]-3,4-dihydro-2-methyl-4-oxo-8-propyl-2H-1-benzopyran-7-yl]oxy]butanoic acid], the IC50 in assay [1] (setting [2]) is 1000 nM.

For `CCCc1c(OCCCCC2(C)CC(=O)c3ccc(OCC(=O)O)c(CCC)c3O2)ccc(C(C)=O)c1O` (racemic) [rac.-[2-[4-(4-acetyl-3-hydroxy-2-propylphenoxy)butyl]-3,4-dihydro-2-methyl-4-oxo-8-propyl-2H-1-benzopyran-7-yl]oxy]acetic acid], the IC50 in assay [1] (setting [2]) is 2000 nM.

Take `CCCc1c(OCCCCC2(C)CC(=O)c3ccc(OCC(=O)OC)cc3O2)ccc(C(C)=O)c1O` (racemic) [rac.-[[2-[4-(4-acetyl-3-hydroxy-2-propylphenoxy)butyl]-3,4-dihydro-2-methyl-4-oxo-2H-1-benzopyran-7-yl]oxy]acetic acid methyl ester]: the “% Inhib. of LTD4” value with LTD4 turned out to be 47 ± 5%.

On to `CCCc1c(OCCCCC2(C)CC(=O)c3ccc(OCC(=O)O)cc3O2)ccc(C(C)=O)c1O` (racemic) [rac.-[[2-[4-(4-acetyl-3-hydroxy-2-propylphenoxy)butyl]-3,4-dihydro-2-methyl-4-oxo-2H-1-benzopyran-7-yl]oxy]acetic acid], for which the IC50 in assay [1] (setting [2]) is 5000 nM.

`CCCc1c(OCCCCC2(C)CC(=O)c3ccc(OCC(=O)OC)c(CCC)c3O2)ccc(C(C)=O)c1O` (racemic) [rac.-[[2-[4-(4-acetyl-3-hydroxy-2-propylphenoxy)butyl]-3,4-dihydro-2-methyl-4-oxo-8-propyl-2H-1-benzopyran-7-yl]oxy]acetic acid methyl ester]: the “% Inhib. of LTD4” value in the assay with LTD4 is 25 ± 12%.

As to `CCCc1c(OCCCCC2CC(=O)c3ccc(OCC(=O)O)c(CCC)c3O2)ccc(C(C)=O)c1O` (racemic) [rac.-[[2-[4-(4-acetyl-3-hydroxy-2-propylphenoxy)butyl]-3,4-dihydro-4-oxo-8-propyl-2H-1-benzopyran-7-yl]oxy]acetic acid], in assay [1] (setting [2]), the IC50 was determined as 500 nM. Further, the “In vivo-aerosol % inhib. at (% conc.)” value with leukotriene E4 (at 0.1 % conc.) is reported as 34.1 ± 8%.

`CCCc1c(OCCCCCCC2(C)CC(=O)c3ccc(OCC(=O)O)c(CCC)c3O2)ccc(C(C)=O)c1O` (racemic) [rac.-[[2-[6-(4-acetyl-3-hydroxy-2-propylphenoxy)hexyl]-3,4-dihydro-2-methyl-4-oxo-8-propyl-2H-1-benzopyran-7-yl]oxy]acetic acid]: the IC50 in assay [1] (setting [2]) is 500 nM. Moreover, the “In vivo-aerosol IC50” value with leukotriene E4 was found to be 0.26%.

With `CCCc1c(OCCCCCCC2CC(=O)c3ccc(OCC(=O)O)c(CCC)c3O2)ccc(C(C)=O)c1O` (racemic) [rac.-[[2-[6-(4-acetyl-3-hydroxy-2-propylphenoxy)hexyl]-3,4-dihydro-4-oxo-8-propyl-2H-1-benzopyran-7-yl]oxy]acetic acid], the IC50 in assay [1] (setting [2]) was found to be 300 nM. Moreover, the “In vivo-aerosol IC50” value in the assay with leukotriene E4 is 0.32%.

With `CCCc1c(OCC(O)Cc2ccc3c(=O)cc(C(=O)O)oc3c2CCC)ccc(C(C)=O)c1O` (centres unmarked) [7-[3-(4-acetyl-3-hydroxy-2-propylphenoxy)-2-hydroxypropyl]-4-oxo-8-propyl-4H-1-benzopyran-2-carboxylic acid, reference compound], the IC50 in assay [1] (SRS-A challenge at EC50, read-out: IC50 of the standard SRS-A antagonist) is 35 nM.
